Results published in ChEMBL document CHEMBL4392882, “Glycosidic Acids with Unusual Aglycone Units from Convolvulus arvensis” (J Nat Prod, 2019).
Active and inactive are the calls of the source.

Assays:
Type in all cases: functional, cell-based
[1] = tested on: MCF7; assay: Cytotoxicity in human MCF7 cells assessed as reduction in cell viability up to 50 uM by MTT assay
[2] = tested on: Bel-7402; assay: Cytotoxicity in human Bel7402 cells assessed as reduction in cell viability up to 50 uM by MTT assay
[3] = tested on: HeLa; assay: Cytotoxicity in human HeLa cells assessed as reduction in cell viability up to 50 uM by MTT assay
[4] = tested on: MCF7; assay: Inhibition of cell migration of human MCF7 cells up to 50 uM by wound healing assay
[5] = tested on: A549; assay: Cytotoxicity in human A549 cells assessed as reduction in cell viability up to 50 uM by MTT assay

CCCCCC[C@@H](CCCCCCCCCC(=O)O)O[C@@H]1O[C@H](C)[C@H](O)[C@H](O)[C@H]1O[C@@H]1O[C@H](CO)[C@@H](O)[C@H](O[C@@H]2O[C@H](CO[C@@H]3O[C@H](CO)[C@@H](O[C@@H]4O[C@H](CO[C@@H]5O[C@H](C)[C@H](O)[C@H](O)[C@H]5O)[C@@H](O)[C@H](O)[C@H]4O)[C@H](O)[C@H]3O)[C@@H](O)[C@H](O)[C@H]2O)[C@H]1O[C@@H]1O[C@@H](C)[C@H](O)[C@@H](O)[C@H]1O
inactive: Activity [1] | Activity [2] | Activity [3] | inhibition [4] | Activity [5]

CCCCC[C@@H](CCCCCCCCCC(=O)O)O[C@@H]1O[C@H](C)[C@H](O)[C@H](O)[C@H]1O[C@@H]1O[C@H](CO)[C@@H](O)[C@H](O[C@@H]2O[C@H](CO)[C@@H](O[C@@H]3O[C@H](CO[C@@H]4O[C@H](C)[C@H](O)[C@H](O)[C@H]4O)[C@@H](O)[C@H](O)[C@H]3O)[C@H](O)[C@H]2O)[C@H]1O[C@@H]1O[C@@H](C)[C@H](O)[C@@H](O)[C@H]1O
inactive: Activity [1] | Activity [2] | Activity [3] | inhibition [4] | Activity [5]

CCCCCC[C@@H](CCCCCCCCCC(=O)O)O[C@@H]1O[C@H](C)[C@H](O)[C@H](O)[C@H]1O[C@@H]1O[C@H](CO)[C@@H](O)[C@H](O[C@@H]2O[C@H](CO)[C@@H](O[C@@H]3O[C@H](CO[C@@H]4O[C@H](C)[C@H](O)[C@H](O)[C@H]4O)[C@@H](O)[C@H](O)[C@H]3O)[C@H](O)[C@H]2O)[C@H]1O[C@@H]1O[C@@H](C)[C@H](O)[C@@H](O)[C@H]1O
inactive: Activity [1] | Activity [2] | Activity [3] | inhibition [4] | Activity [5]

CCCCC[C@@H](CCCCCCCCCC(=O)O)O[C@@H]1O[C@H](C)[C@H](O)[C@H](O)[C@H]1O[C@@H]1O[C@H](CO)[C@@H](O)[C@H](O[C@@H]2O[C@H](CO[C@@H]3O[C@H](CO)[C@@H](O[C@@H]4O[C@H](CO[C@@H]5O[C@H](C)[C@H](O)[C@H](O)[C@H]5O)[C@@H](O)[C@H](O)[C@H]4O)[C@H](O)[C@H]3O)[C@@H](O)[C@H](O)[C@H]2O)[C@H]1O[C@@H]1O[C@@H](C)[C@H](O)[C@@H](O)[C@H]1O
inactive: Activity [1] | Activity [2] | Activity [3] | inhibition [4] | Activity [5]

CCCCC[C@@H](CCCCCCCCCC(=O)O)O[C@@H]1O[C@H](C)[C@H](O)[C@H](O)[C@H]1O[C@@H]1O[C@H](CO)[C@@H](O)[C@H](O[C@@H]2O[C@H](CO[C@@H]3O[C@H](CO)[C@@H](O[C@@H]4O[C@H](CO)[C@@H](O)[C@H](O)[C@H]4O)[C@H](O)[C@H]3O)[C@@H](O)[C@H](O)[C@H]2O)[C@H]1O[C@@H]1O[C@@H](C)[C@H](O)[C@@H](O)[C@H]1O
inactive: Activity [1] | Activity [2] | Activity [3] | inhibition [4] | Activity [5]

CCCCCC[C@@H](CCCCCCCCCC(=O)O)O[C@@H]1O[C@H](C)[C@H](O)[C@H](O)[C@H]1O[C@@H]1O[C@H](CO)[C@@H](O)[C@H](O[C@@H]2O[C@H](CO[C@@H]3O[C@H](CO)[C@@H](O[C@@H]4O[C@H](CO)[C@@H](O)[C@H](O)[C@H]4O)[C@H](O)[C@H]3O)[C@@H](O)[C@H](O)[C@H]2O)[C@H]1O[C@@H]1O[C@@H](C)[C@H](O)[C@@H](O)[C@H]1O
inactive: Activity [1] | Activity [2] | Activity [3] | inhibition [4] | Activity [5]
